In ChEMBL document CHEMBL5126591, “Early potential evaluation of lead compounds from a DNA-encoded library by the determination of their thermodynamics through a chromatographic method based on immobilized β2-adrenoceptor” (Bioorg Med Chem, 2022) one finds Retention time, Ka and Activity data, which are given here for three compounds.

Experiment [1] deals with T1, Beta-2 adrenergic receptor (Homo sapiens, UniProt P07550).
Target sequence in this assay (P07550 whole entry, looked up, the tested form may be a part): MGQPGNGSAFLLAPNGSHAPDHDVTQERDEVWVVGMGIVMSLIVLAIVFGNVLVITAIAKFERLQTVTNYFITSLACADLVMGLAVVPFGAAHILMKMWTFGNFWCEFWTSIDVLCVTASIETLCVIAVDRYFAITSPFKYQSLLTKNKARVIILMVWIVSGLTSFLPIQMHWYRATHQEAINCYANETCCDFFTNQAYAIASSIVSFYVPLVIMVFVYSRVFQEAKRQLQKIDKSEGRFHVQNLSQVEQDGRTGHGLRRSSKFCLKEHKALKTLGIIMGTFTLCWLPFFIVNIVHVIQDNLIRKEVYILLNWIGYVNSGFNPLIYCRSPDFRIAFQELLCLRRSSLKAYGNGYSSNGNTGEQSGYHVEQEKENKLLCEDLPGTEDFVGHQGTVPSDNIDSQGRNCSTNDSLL
Description: Binding affinity to immobilized Halo tag-fused beta2 adrenoceptor (unknown origin) expressed in Escherichia coli BL21 (DE3) assessed as retention time by chromatographic analysis
The target in experiment [2] is T1, Beta-2 adrenergic receptor. In words: Displacement of [3H]-CGP12,177 from immobilized Halo tag-fused beta2 adrenoceptor (unknown origin) expressed in Escherichia coli BL21 (DE3). (Displacement assays read how much labelled ligand stays bound in the presence of the test substance.)
Target sequence in this assay (P07550 whole entry, the tested form may be a part): as the sequence (P07550 whole entry, looked up, the tested form may be a part) above
Experiment [3] addresses T1, Beta-2 adrenergic receptor. In words: Binding affinity to immobilized Halo tag-fused beta2 adrenoceptor (unknown origin) expressed in Escherichia coli BL21 (DE3) assessed as reduction in retention time by chromatographic analysis.
Target sequence in this assay (P07550 whole entry, looked up, the tested form may be a part): as above

The source made the active and inactive calls. The calls are words filed in the database; no cut-off is given here.

In experiment [1], `CNC(C)Cc1ccccc1OC` (centres undefined) [METHOXYPHENAMINE] yielded a Retention time of 4.6 min. In addition, the Ka in experiment [2] is 2.08 10^5/M.
As for `O=NO`, the Retention time in experiment [1] came to 2.4 min.
As to `CC1(C)[C@@H](O)CC[C@]2(C)[C@H]3C(=O)C=C4[C@@H]5C[C@@](C)(C(=O)NCCc6ccc(O)cc6)CC[C@]5(C)CC[C@@]4(C)[C@]3(C)CC[C@@H]12`, the outcome in experiment [3] was Active.
